Source: patent publication US9451768B2, “Biocidal compositions and methods of use” (priority 2009, dated 2016)

Key:
[1] = tested on: Psedomonas aeruginosa ATCC 10145 and Staphylococcus aureus ATCC 6538; assay: MBC against aerobic bacteria, 37° C., 24 hour (Example 2); format: cell-based
Experimental: (§1) The synergy indexes reported in the following examples are calculated using the following equation: Synergy Index=Ca/CA+Cb/CB
(§2) Various methods known to those skilled in the art can be used for evaluating biocidal efficacy. In the examples below, aliquots of the treated samples are removed at predetermined time points and the concentration required to achieve a certain level or complete bacterial kill is determined by culture-based methods including serial dilution. In some examples, the method is based or adapted (e.g., for high temperature testing or for the presence of sulfide) from the methodology described in international application PCT/US08/075,755, filed Sep. 10, 2008, which is incorporated herein by reference.
A sterile NaCl solution (0.85%) is contaminated with Psedomonas aeruginosa ATCC 10145 and Staphylococcus aureus ATCC 6538 at a final bacterial concentration of ˜10^6 CFU/ml. Aliquots of this contaminated water are then treated with biocide solution (single or in combination) at various concentrations.

[2] = tested on: oil field isolated anaerobic SRB consortium; assay: MBC against anaerobic SRB consortium, 40° C., 24 hour (Example 1); format: cell-based, anaerobic sulfate-reducing bacteria (SRB)
Experimental: as §1, §2
Inside an anaerobic chamber, a deaerated sterile salt solution (3.1183 g of NaCl, 1.3082 mg of NaHCO3, 47.70 mg of KCl, 72.00 mg of CaCl2, 54.49 mg of MgSO4, 172.28 mg of Na2SO4, 43.92 mg of Na2CO3 in 1 L water) is contaminated with an oil field isolated anaerobic SRB consortium at final bacterial concentrations of 10^6-10^7 CFU/mL. Aliquots of this contaminated water are then treated with biocide solution (single or in combination) at various concentrations.

[3] = tested on: oil field isolated anaerobic SRB consortium; assay: Anaerobic bacteria under high temperature, sulfide-rich and re-challenge conditions (Example 5); format: cell-based, anaerobic sulfate-reducing bacteria (SRB); details: 80° C., daily challenge with SRB and 10 ppm sulfide ion
Experimental: as §1, §2
Inside an anaerobic chamber, biocide solutions of DBNPA, CTAC, and DBNPA/CTAC combinations at various concentrations are prepared in a salt solution (3.1183 g of NaCl, 1.3082 mg of NaHCO3, 47.70 mg of KCl, 72.00 mg of CaCl2, 54.49 mg of MgSO4, 172.28 mg of Na2SO4, 43.92 mg of Na2CO3 in 1 L water). […] After heating at 80 C for 2 hours, biocidal efficacy is evaluated against the field SRB consortium at 40° C. for 2 h. The same samples, after heating for 1 day to 7 days at 80 C, are evaluated against the field SRB consortium at 40 C for 24 h. […]

[4] = tested on: mixed bacteria consortium (Pseudomonas aeruginosa ATCC 10145, Pseudomonas aeruginosa ATCC 15422, Enterobacter aerogenes ATCC 13048, Escherichia coli ATCC …); assay: Ternary DBNPA, CTAC and bronopol combination, re-challenge test against mixed bacteria consortium (Example 6); format: cell-based, mixed aerobic bacteria; details: for Dose required for >4 log10 bacterial reduction vs. control, DBNPA: DBNPA alone or DBNPA part of DBNPA:bnpd:CTAC combination; for Dose required for >4 log10 bacterial reduction vs. control, bnpd: bnpd alone or bnpd part of DBNPA:bnpd:CTAC combination; for Dose required for >4 log10 bacterial reduction vs. control, CTAC: CTAC alone or CTAC part of DBNPA:bnpd:CTAC combination
Experimental: as §1, §2
(§3) DBNPA, bronopol, and CTAC are added to a sterile solution of synthetic surface water (CaCl2 0.2203 g, MgSO4 0.1847 g, NaHCO3 0.1848 g, deionized water 1 L) both alone and in various combinations. An initial inoculum of a mixed bacteria consortium (Pseudomonas aeruginosa ATCC 10145, Pseudomonas aeruginosa ATCC 15422, Enterobacter aerogenes ATCC 13048, Escherichia coli ATCC 11229, Klebsiella pneumoniae ATCC 8308, Staphylococcus aureus ATCC 6538, Salmonella choleraesuis ATCC 10708) is added to each biocidal solution at a final concentration of 5×10^6 CFU/mL. After 2, 6 and 13 days, the biocidal solutions are re-challenged with the same bacteria consortium to a final concentration of 5×10^4 CFU/mL of additional bacteria. All treatments are incubated at ambient temperatures. The results are shown in Table 10 which reports the biocide concentrations required to achieve a ≧4 log10 kill reduction in microorganisms.

[5] = tested on: mixed bacteria consortium (Pseudomonas aeruginosa ATCC 10145, Pseudomonas aeruginosa ATCC 15422, Enterobacter aerogenes ATCC 13048, Escherichia coli ATCC …); assay: Re-challenge test against aerobic mixed bacteria consortium (Example 3); format: cell-based; details: ambient temperature; for Dose required for ≧4 log10 bacteria reduction (ppm), DBNPA: DBNPA alone or DBNPA part of DBNPA/CTAC combination; for Dose required for ≧4 log10 bacteria reduction (ppm), CTAC: CTAC alone or CTAC part of DBNPA/CTAC combination
Experimental: as §1, §2
as §3, with “DBNPA and” for “DBNPA, bronopol, and”, “CTAC is” for “CTAC are”, “g, DI” for “g, deionized”, “Table 7” for “Table 10”

[6] = tested on: oil field isolated anaerobic SRB consortium; assay: Anaerobic bacteria under sulfide-rich and multiple challenge conditions (Example 4); format: cell-based, anaerobic sulfate-reducing bacteria (SRB); details: room temperature, daily challenge with SRB and 10 ppm sulfide ion
Experimental: as §1
as §2, with “10, 2008, which is incorporated herein by reference.” left out
Inside an anaerobic chamber, biocide solutions of DBNPA, CTAC, and DBNPA/CTAC combinations at various concentrations are prepared in a salt solution (3.1183 g of NaCl, 1.3082 mg of NaHCO3, 47.70 mg of KCl, 72.00 mg of CaCl2, 54.49 mg of MgSO4, 172.28 mg of Na2SO4, 43.92 mg of Na2CO3 in 1 L water). […] The viable bacteria left in the mixtures is determined at different incubation times up to 7 days, using a serial dilution method. Bacterial log reduction is then calculated. The biocidal efficacy is determined by selecting the lowest biocide concentration required to achieve at least a 99.9% bacterial reduction for all three of the following time points: 2 hour, 1 day, and 7 days. Synergy index is then calculated.

[7] = HHT alone or HHT part of DBNPA/HHT combination
[8] = tris nitro alone or tris nitro part of DBNPA/tris nitro combination
[9] = DBNPA alone or DBNPA part of DBNPA/CTAC combination
[10] = Day 3 after initial inoculation
[11] = Day 27 after initial inoculation
[12] = DBNPA alone or DBNPA part of DBNPA/HHT combination
[13] = DBNPA alone or DBNPA part of DBNPA/tris nitro combination
[14] = Day 20 after initial inoculation
[15] = CTAC alone or CTAC part of DBNPA/CTAC combination

OCCN1CN(CCO)CN(CCO)C1 [HHT, hexahydro-1,3,5-tris(2-hydroxyethyl)-s-triazine]
Dosage required for complete bacterial reduction (ppm), HHT [1, 7]: 94.2 ppm
Dosage required for complete bacterial reduction (ppm), HHT [2, 7]: 113.8 ppm

O=[N+]([O-])C(CO)(CO)CO [tris nitro, tris(hydroxymethyl)nitromethane]
Dosage required for complete bacterial reduction (ppm), tris nitro [1, 8]: 104.6 ppm
Dosage required for complete bacterial reduction (ppm), tris nitro [2, 8]: 29.6 ppm

N#CC(Br)(Br)C(N)=O [DBNPA, 2,2-dibromo-3-nitrilopropionamide]
Lowest biocide concentration required for ≧99.9% bacterial reduction for 2 h, 1 day, and 7 days (ppm), DBNPA [3, 9]: >120 ppm
Dose required for >4 log10 bacterial reduction vs. control, DBNPA [4, 10]: <12
Dose required for >4 log10 bacterial reduction vs. control, DBNPA [4, 11]: >75
Dosage required for complete bacterial reduction (ppm), DBNPA [1, 9]: 8.9 ppm
Dosage required for complete bacterial reduction (ppm), DBNPA [1, 12]: 8.9 ppm
Dosage required for complete bacterial reduction (ppm), DBNPA [1, 13]: 9.9 ppm
Dosage required for complete bacterial reduction (ppm), DBNPA [2, 9]: 9.1 ppm
Dosage required for complete bacterial reduction (ppm), DBNPA [2, 12]: 7.0 ppm
Dosage required for complete bacterial reduction (ppm), DBNPA [2, 13]: 8.9 ppm
Dose required for ≧4 log10 bacteria reduction (ppm), DBNPA [5, 10]: >167 ppm
Dose required for ≧4 log10 bacteria reduction (ppm), DBNPA [5, 14]: >250 ppm
Lowest biocide concentration required for ≧99.9% bacterial reduction for 2 h, 1 day, and 7 days (ppm), DBNPA [6, 9]: 60.0 ppm

O=[N+]([O-])C(Br)(CO)CO [bnpd, 2-bromo-2-nitropropane-1,3-diol]
Dose required for >4 log10 bacterial reduction vs. control, bnpd [4, 10]: 32
Dose required for >4 log10 bacterial reduction vs. control, bnpd [4, 11]: >200

ClC=CC[N+]12CN3CN(CN(C3)C1)C2 [CTAC, 1-(3-chloroallyl)-3,5,7-triaza-1-azoniaadamantane]
Lowest biocide concentration required for ≧99.9% bacterial reduction for 2 h, 1 day, and 7 days (ppm), CTAC [3, 15]: 180 ppm
Dose required for >4 log10 bacterial reduction vs. control, CTAC [4, 10]: >750
Dose required for >4 log10 bacterial reduction vs. control, CTAC [4, 11]: >750
Dosage required for complete bacterial reduction (ppm), CTAC [1, 15]: >159 ppm
Dosage required for complete bacterial reduction (ppm), CTAC [2, 15]: 87.5 ppm
Dose required for ≧4 log10 bacteria reduction (ppm), CTAC [5, 10]: >750 ppm
Dose required for ≧4 log10 bacteria reduction (ppm), CTAC [5, 14]: >750 ppm
Lowest biocide concentration required for ≧99.9% bacterial reduction for 2 h, 1 day, and 7 days (ppm), CTAC [6, 15]: >360.0 ppm
